# Measurements reported in US20250223301A1, “KINASE INHIBITORS, PREPARATION METHODS AND USES THEREOF” (InventisBio Co., Ltd., priority 2022, published 2025).
# How the values were obtained:
# DGKz = DGKz (Homo sapiens (Human), UniProt Q13574); assay: DGK ADP-Glo kinase assay (DGKz); format: biochemical; conditions: 5 nM DGKz, 15 uM ATP
# Procedure: Luminescence was recorded using an Tecan SPARK microplate reader.
# DGKa = DGKa (Homo sapiens (Human), UniProt P23743); assay: biochemical;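 further: biochemical DGK kinase assay, ADP-Glo luminescence from ADP made by phosphorylating 1,2-dioleoyl-sn-glycerol, 20 min compound preincubation then 40 min reaction at 25 °C, 1% DMSO control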
# Procedure: The DGKa and DGKz kinase assays were performed using Promega ADP-Glo kit (Promega, Cat #V9102). One microliter test compound was added to a 384-well plate. Reactions were performed in a 5 uL volume by adding 2 uL mixture of DGK enzyme and ATP in assay buffer (50 mM MOPS pH 7.5, 100 mM NaCl, 10 mM MgCl2, 1 mM CaCl2, 0.0025% BSA, and 1 mM DTT). […] The enzyme solution was incubated with test compound at 25 ? for 20 min. […] The reaction was initiated by the addition of 2 uL of substrate solution (7 uM 1.2-dioleoyl-sn-glycerol, 5 mM octyl-b-D-glucopyranoside) in the 5 uL assay volume. The resulting mixture was incubated at 25° C. for 40 minutes. Next, 5 uL of ADP-Glo-reagent was added to the plate and incubated for 40 minutes. Then 10 uL of kinase detection reagent was added and incubated for 30 minutes. Luminescence was recorded using an Tecan SPARK microplate reader. 1% DMSO vehicle was used as control and no enzyme well was used as blank well.
# PBMC = assay: Human PBMC IL-2 assay; format: cell-based; conditions: anti-CD3/CD28 stimulation overnight, IL-2 level
# In short: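 Healthy-donor frozen PBMC were thawed, rested 4 h at 37 °C and plated at ~200,000 cells/well. Cells were preincubated 60 min at 37 °C with compound solution (10 uM to 0.6 nM, 8 points, 4-fold, as added), then stimulated overnight with anti-CD3/CD28. Supernatant IL-2 was quantified by immunoassay kit and plotted against log compound concentration.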
# Jurkat cells = assay: Jurkat IL-2 assay; format: cell-based; conditions: Homo sapiens, anti-CD3/CD28 stimulation overnight, IL-2 level
# In short: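 Cells in RPMI-1640 with 10% FBS received compound solution (5 uM to 2.3 nM, 8 points, 3-fold dilution) for 60 minutes at 37° C. They were then stimulated overnight at 37° C. with anti-CD3/CD28 antibody. IL-2 in the supernatant was quantified by immunoassay kit and plotted against log compound concentration.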
# DGKz, sequence (Q13574 whole entry): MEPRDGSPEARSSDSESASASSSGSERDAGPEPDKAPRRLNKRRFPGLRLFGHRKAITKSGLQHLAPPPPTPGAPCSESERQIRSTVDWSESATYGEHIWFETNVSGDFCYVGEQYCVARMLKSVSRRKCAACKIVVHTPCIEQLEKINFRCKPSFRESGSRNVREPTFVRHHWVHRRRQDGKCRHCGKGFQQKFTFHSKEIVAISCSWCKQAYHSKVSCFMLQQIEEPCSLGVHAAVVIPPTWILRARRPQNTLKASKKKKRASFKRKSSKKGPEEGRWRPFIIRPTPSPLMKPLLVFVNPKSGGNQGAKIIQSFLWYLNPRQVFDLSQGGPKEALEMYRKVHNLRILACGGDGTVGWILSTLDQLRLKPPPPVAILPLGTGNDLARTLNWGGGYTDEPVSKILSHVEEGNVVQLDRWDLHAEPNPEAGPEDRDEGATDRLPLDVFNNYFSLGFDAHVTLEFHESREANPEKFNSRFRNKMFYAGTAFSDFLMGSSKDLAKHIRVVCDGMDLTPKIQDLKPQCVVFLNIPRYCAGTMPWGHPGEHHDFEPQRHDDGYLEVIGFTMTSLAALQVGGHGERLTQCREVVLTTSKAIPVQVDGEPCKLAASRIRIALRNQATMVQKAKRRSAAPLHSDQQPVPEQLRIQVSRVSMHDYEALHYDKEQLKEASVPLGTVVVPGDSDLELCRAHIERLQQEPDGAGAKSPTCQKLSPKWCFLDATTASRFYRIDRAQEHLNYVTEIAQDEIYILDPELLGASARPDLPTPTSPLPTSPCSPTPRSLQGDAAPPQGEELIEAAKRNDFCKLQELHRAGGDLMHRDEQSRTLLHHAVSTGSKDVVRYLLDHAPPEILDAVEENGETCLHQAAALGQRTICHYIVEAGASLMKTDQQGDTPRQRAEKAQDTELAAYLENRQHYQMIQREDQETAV
# DGKa, sequence (P23743 whole entry): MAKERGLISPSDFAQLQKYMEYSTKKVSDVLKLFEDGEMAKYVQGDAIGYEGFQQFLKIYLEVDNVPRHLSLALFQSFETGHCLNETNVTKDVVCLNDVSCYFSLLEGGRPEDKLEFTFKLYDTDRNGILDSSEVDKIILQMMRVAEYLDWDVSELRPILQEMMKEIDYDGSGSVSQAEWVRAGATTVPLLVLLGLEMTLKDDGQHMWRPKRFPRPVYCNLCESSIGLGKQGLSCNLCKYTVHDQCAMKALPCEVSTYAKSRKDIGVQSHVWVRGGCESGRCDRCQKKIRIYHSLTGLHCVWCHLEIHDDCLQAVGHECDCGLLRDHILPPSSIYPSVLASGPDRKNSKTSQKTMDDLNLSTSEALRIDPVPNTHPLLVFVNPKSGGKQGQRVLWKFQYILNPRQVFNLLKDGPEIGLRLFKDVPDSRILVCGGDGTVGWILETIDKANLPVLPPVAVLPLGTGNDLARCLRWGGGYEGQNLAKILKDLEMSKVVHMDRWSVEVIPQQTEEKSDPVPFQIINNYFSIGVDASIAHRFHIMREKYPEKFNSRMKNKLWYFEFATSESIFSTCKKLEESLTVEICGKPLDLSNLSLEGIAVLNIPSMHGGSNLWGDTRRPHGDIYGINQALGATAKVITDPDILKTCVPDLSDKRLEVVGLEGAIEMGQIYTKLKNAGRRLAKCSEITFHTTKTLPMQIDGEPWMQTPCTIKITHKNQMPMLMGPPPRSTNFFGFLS
SMILES,IC50 (DGKz) [nM],IC50 (DGKa) [nM],EC50 (Jurkat cells) [nM],EC50 (PBMC) [nM]
"CC[C@H]1C[C@]2(CCN1c1nc(=O)n(C)c3ccc(C#N)nc13)CC(c1ccc(OC(F)(F)F)cc1)=NO2 (single isomer, unassigned) [Compound 74]",1570,10,,
"CC[C@@H]1C[C@@]2(CCN1c1nc(=O)n(C)c3ccc(C#N)nc13)CC(c1ccc(OC(F)(F)F)cc1)=NO2 (single isomer, unassigned) [Compound 75]",660,253,,
"CC[C@H]1C[C@@H](c2nc3cc(C)ccc3o2)CCN1c1nc(=O)n(C)c2cc(O[C@@H]3CCOC3)c(Cl)cc12 (single isomer, unassigned) [Compound 94]",1300,140,,
"CC[C@H]1C[C@H](c2nc3cc(C)ccc3o2)CCN1c1nc(=O)n(C)c2cc(OC3CCOC3)c(Cl)cc12 (single isomer, unassigned) [Compound 97]",6,5,,
"CC[C@H]1CN([C@@H](CC)c2ccc(OC(F)(F)F)cc2)[C@H](CC)CN1c1nc2nncn2c2ccc(C#N)nc12 (single isomer, unassigned) [Compound 100]",30,1,,
CC[C@H]1CN([C@@H](C)c2ccc(SC(F)(F)F)cc2)[C@H](CC)CN1c1nc2nncn2c2ccc(C#N)nc12 (stereo in doubt) [Compound 51],50,58,,
CC[C@H]1CN([C@H](C)c2ccc(SC(F)(F)F)cc2)[C@H](CC)CN1c1nc2nncn2c2ccc(C#N)nc12 (stereo in doubt) [Compound 52],499,5,,
CC[C@H]1CN([C@H](CC)c2cccc(S(F)(F)(F)(F)F)c2)[C@H](CC)CN1c1nc(=O)n(C)c2ccc(C#N)nc12 (stereo in doubt) [Compound 56],131,415,,
CC[C@@H]1CN(c2nc(=O)n(C)c3ccc(C#N)nc23)[C@@H](C)CN1[C@@H](CC)c1ccc(S(F)(F)(F)(F)F)cc1 (stereo in doubt) [Compound 60],28,83,,
CC[C@@H]1CN(c2nc(=O)n(C)c3ccc(C#N)nc23)[C@@H](C)CN1[C@H](CC)c1ccc(S(F)(F)(F)(F)F)cc1 (stereo in doubt) [Compound 61],180,128,,
CC[C@H]1CN([C@@H](C)c2ccc(S(F)(F)(F)(F)F)cc2)[C@H](CC)CN1c1nc(=O)n(C)c2ccc(C#N)nc12 (stereo in doubt) [Compound 62],132,35,,
CC[C@H]1CN([C@H](C)c2ccc(S(F)(F)(F)(F)F)cc2)[C@H](CC)CN1c1nc(=O)n(C)c2ccc(C#N)nc12 (stereo in doubt) [Compound 63],639,16,,
CC[C@@H]1CN(c2nc3nncn3c3ccc(C#N)nc23)[C@@H](C)CN1[C@@H](CC)c1ccc(SC(F)(F)F)cc1 (stereo in doubt) [Compound 66],53,4,,
CC[C@H]1CN([C@@H](CC)c2ccc(SC(F)(F)F)cc2)[C@H](CC)CN1c1nc2nncn2c2ccc(C#N)nc12 (stereo in doubt) [Compound 68],103,5,,
CC[C@H]1CN([C@H](CC)c2ccc(SC(F)(F)F)cc2)[C@H](CC)CN1c1nc2nncn2c2ccc(C#N)nc12 (stereo in doubt) [Compound 69],346,10,,
CC[C@H]1CN([C@H](c2ccc(SC(F)(F)F)cc2)c2nc(C3CC3)no2)[C@H](CC)CN1c1nc(=O)n(C)c2ccc(C#N)nc12 (stereo in doubt) [Compound 70],53,3,,
CC[C@@H]1CN(c2nc3nncn3c3ccc(C#N)nc23)[C@@H](C)CN1[C@H](CC)c1ccc(SC(F)(F)F)cc1 (stereo in doubt) [Compound 71],236,21,,
CC[C@H]1CN([C@H](CC)c2ccc(S(F)(F)(F)(F)F)cc2)[C@H](CC)CN1c1nc(=O)n2c3c(cc(C#N)nc13)OCC2 (stereo in doubt) [Compound 79],333,111,,
CC[C@@H]1CN(c2nc3nncn3c3ccc(C#N)nc23)[C@@H](C)CN1[C@@H](CC)c1ccc(S(F)(F)(F)(F)F)cc1 (stereo in doubt) [Compound 80],27,12,,
CC[C@@H]1CN(c2nc3nncn3c3ccc(C#N)nc23)[C@@H](C)CN1[C@@H](CC)c1ccc(C(F)(F)F)cc1 (stereo in doubt) [Compound 81],16,6,,
CC[C@@H]1CN(c2nc3nncn3c3ccc(C#N)nc23)[C@@H](C)CN1[C@H](CC)c1ccc(C(F)(F)F)cc1 (stereo in doubt) [Compound 82],454,2,,
CC[C@H]1CN([C@@H](CC)c2ccc(S(F)(F)(F)(F)F)cc2)[C@H](CC)CN1c1nc(=O)n2c3c(cc(C#N)nc13)OCC2 (stereo in doubt) [Compound 83],124,23,,
CC[C@H]1CN([C@@H](C)c2ccc(S(F)(F)(F)(F)F)cc2)[C@H](CC)CN1c1nc2nncn2c2ccc(C#N)nc12 (stereo in doubt) [Compound 88],38,18,,
CC[C@H]1CN([C@H](C)c2ccc(S(F)(F)(F)(F)F)cc2)[C@H](CC)CN1c1nc2nncn2c2ccc(C#N)nc12 (stereo in doubt) [Compound 89],116,10,,
CC[C@@H]1CN(c2nc3nncn3c3ccc(C#N)nc23)[C@@H](C)CN1[C@H](CC)c1ccc(S(F)(F)(F)(F)F)cc1 (stereo in doubt) [Compound 90],404,10,,
CC[C@H]1C[C@@H](c2nc3cc(C)ccc3o2)CCN1c1nc(=O)n(C)c2cc(O[C@H]3CCOC3)c(Cl)cc12 (stereo in doubt) [Compound 93],130,12,,

# More lines, main results first:
IC50 (DGKz) [nM],IC50 (DGKa) [nM],EC50 (Jurkat cells) [nM],SMILES,EC50 (PBMC) [nM]
,,526,CC[C@H]1CN(C2CCCOc3cc(C(F)(F)F)ccc32)[C@H](CC)CN1c1nc(=O)n(C)c2ccc(C#N)nc12 (stereo partly drawn) [Compound 154],734
,,1620,CC[C@H]1CN2[C@@H](COC[C@@H]2c2ccc(C(F)(F)F)cc2)CN1c1nc(=O)n(C)c2ccc(C#N)nc12 [Compound 193],1310
,,873,CC[C@@H]1CN2c3c(c(=O)n(C)c4ccc(C#N)nc34)N(C)C(=O)[C@@H]2CN1[C@H](CC)c1ccc(C(F)(F)F)cc1 [Compound 199],1580
,,565,CC[C@@H]1CN2c3c(c(=O)n(C)c4ccc(C#N)cc34)OC[C@@H]2CN1[C@@H](CC)c1ccc(C(F)(F)F)cc1 [Compound 210],1720
,,485,CC[C@@H]1CN2c3c(c(=O)n(C)c4ccc(C#N)cc34)OC[C@@H]2CN1[C@H](CC)c1ccc(C(F)(F)F)cc1 [Compound 211],175
,,503,CC[C@@H]1CN2c3c(c(=O)n(C)c4ccc(C#N)nc34)N(C)C[C@@H]2CN1[C@@H](CC)c1ccc(C(F)(F)F)cc1 [Compound 221],624
,,538,CC[C@@H]1CN2c3c(c(=O)n(C)c4ccc(C#N)nc34)OC[C@@H]2CN1[C@@H](CO)c1ccc(C(F)(F)F)cc1 [Compound 235],662
,,588,C[C@H]1c2cccc(-c3ccc(C(F)(F)F)cc3)c2CCN1c1nc(=O)n(C)c2ccc(C#N)nc12 [Compound 241],1100
,,122,CC[C@@H]1CN2c3c(c(=O)[nH]c4ccc(C#N)nc34)OC[C@@H]2CN1[C@@H](CC)c1ccc(C(F)(F)F)cc1 [Compound 252],106
,,165,CC[C@@H]1CN2c3c(c(=O)n(C)c4ccc(C#N)nc34)OC[C@@H]2CN1Cc1ccc(C(F)(F)F)cc1 [Compound 265],152
,,163,CC[C@@H]1CN2c3c(c(=O)n(C)c4ccc(C#N)nc34)OC[C@@H]2CN1Cc1ccc(Cl)c(Cl)c1 [Compound 266],111
,,256,CC[C@@H]1CN2c3c(c(=O)n(C)c4ccc(C#N)nc34)OC[C@@H]2CN1[C@@H](c1ccc(C(F)(F)F)cc1)C(C)C [Compound 272],325
,,40,CC[C@@H]1CN2c3c(c(=O)n(C)c4ccc(C#N)nc34)OC[C@@H]2CN1[C@@H](COC)c1ccc(C(F)(F)F)cc1 [Compound 283],36
,,16,CC[C@@H]1CN2c3c(c(=O)n(C)c4ccc(C#N)nc34)OC[C@@H]2CN1[C@@H](CC)c1ccc(C(C)(F)F)cc1 [Compound 289],7
,,688,Cn1c(=O)c2c(c3nc(C#N)ccc31)N1CC[C@@H](Oc3ccc(C(F)(F)F)cc3)C[C@H]1CO2 [Compound 325],561
,,267,CC[C@@H]1CN2c3c(c(=O)n(C)c4ccc(C#N)nc34)OC[C@@H]2CN1[C@H](CC)c1ncc(C(F)(F)F)cn1 [Compound 330],115
,,14,CC[C@@H]1CN2c3c(c(=O)n(C)c4ccc(C#N)nc34)OC[C@@H]2CN1[C@@H](CC)c1ncc(C(F)(F)F)cn1 [Compound 331],16
,,91,CC[C@@H]1CN2c3c(c(=O)n(C)c4ccc(C#N)nc34)OC[C@@H]2CN1[C@@H](c1ccc(C(F)(F)F)cc1)C1CC1 [Compound 346],138
,,9,CC[C@@H]1CN2c3c(c(=O)n(C)c4ccc(C#N)nc34)OC[C@@H]2CN1[C@H](c1ccc(C(F)(F)F)cc1)C1CC1 [Compound 347],13
